The pEC50 is the EC50 on a negative log10 scale, so that one unit is a factor of ten.

Structures are written as SMILES. pEC50: −log10 of the molar value.

Here are results for 12 compounds from US11078170B2 (Assembly Biosciences, Inc., priority 2017, dated 2021).

The experiment concerns HBV viral production from HepAD38 cells. In words: Activity of test compounds on viral production from HepAD38 cells (viral load by qPCR of HBV core sequence in supernatant). In kind it is cell-based. Conditions: Hepatitis B virus, 120 h, 5 days incubation, HBV DNA in supernatant by qPCR, top concentration 10 μM, read-out: Viral Load EC50 Activity range. In a few lines: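 HepAD38 cells, 50,000/well in tetracycline-free 2% FBS medium, treated 5 days at 37° C. with compound from 10 μM top concentration. HBV DNA in supernatant quantified by TaqMan qPCR of core sequence against DNA standards, relative to DMSO wells; CellTiter-Glo viability read in parallel. EC50/CC50 from four-parameter logistic fit.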
(Real-time PCR tracks product formation cycle by cycle.)
As for `COC(C)(C)CCN1[C@@H](C(=O)Nc2ccc(F)c(Cl)c2)C[C@@H](c2nccs2)NS1(=O)=O` [HBV-CSU-083-ISO-I, Cis-N-(3-Chloro-4-fluorophenyl)-2-(3-methoxy-3-methylbutyl)-5-(thiazol-2-yl)-1,2,6-thiadiazinane-3-carboxamide 1,1-dioxide], the negative-log EC50 (pEC50) is under 5.30.

For `COC(C)(C)CCN1[C@H](C(=O)Nc2ccc(F)c(Cl)c2)C[C@H](c2nccs2)NS1(=O)=O` [HBV-CSU-083-ISO-II, Cis-N-(3-Chloro-4-fluorophenyl)-2-(3-methoxy-3-methylbutyl)-5-(thiazol-2-yl)-1,2,6-thiadiazinane-3-carboxamide 1,1-dioxide], the pEC50 was under 5.30.

In the case of `C#CCN1[C@@H](C(=O)Nc2ccc(F)c(Cl)c2)C[C@@H](c2nccs2)NS1(=O)=O` [HBV-CSU-089-ISO-II, Cis-N-(3-chloro-4-fluorophenyl)-2-(prop-2-yn-1-yl)-5-(thiazol-2-yl)-1,2,6-thiadiazinane-3-carboxamide 1,1-dioxide], the negative-log EC50 (pEC50) is under 5.30.

In the case of `C#CCCN1C(C(=O)Nc2ccc(F)c(Cl)c2)CC(c2nccs2)NS1(=O)=O` (stereo not drawn) [HBV-CSU-090, Cis-2-(But-3-yn-1-yl)-N-(3-chloro-4-fluorophenyl)-5-(thiazol-2-yl)-1,2,6-thiadiazinane-3-carboxamide 1,1-dioxide], the pEC50 is over 6.00.

As for `C#CCCN1[C@H](C(=O)Nc2ccc(F)c(Cl)c2)C[C@H](c2nccs2)NS1(=O)=O` [HBV-CSU-090-ISO-I, Cis-2-(But-3-yn-1-yl)-N-(3-chloro-4-fluorophenyl)-5-(thiazol-2-yl)-1,2,6-thiadiazinane-3-carboxamide 1,1-dioxide], the pEC50 is over 6.00.

Regarding `C#CCCN1[C@@H](C(=O)Nc2ccc(F)c(Cl)c2)C[C@@H](c2nccs2)NS1(=O)=O` [HBV-CSU-090-ISO-II, Cis-2-(But-3-yn-1-yl)-N-(3-chloro-4-fluorophenyl)-5-(thiazol-2-yl)-1,2,6-thiadiazinane-3-carboxamide 1,1-dioxide], the pEC50 was under 5.30.

`O=C(Nc1ccc(F)c(Cl)c1)[C@@H]1C[C@H](c2nccs2)NS(=O)(=O)N1CCc1c[nH]nn1` [HBV-CSU-092-ISO-I, Cis-2-(2-(1H-1,2,3-Triazol-4-yl)ethyl)-N-(3-chloro-4-fluorophenyl)-5-(thiazol-2-yl)-1,2,6-thiadiazinane-3-carboxamide 1,1-dioxide]: the pEC50 is over 6.00.

For the compound `O=C(Nc1ccc(F)c(Cl)c1)[C@H]1C[C@@H](c2nccs2)NS(=O)(=O)N1CCc1c[nH]nn1` [HBV-CSU-092-ISO-II, Cis-2-(2-(1H-1,2,3-Triazol-4-yl)ethyl)-N-(3-chloro-4-fluorophenyl)-5-(thiazol-2-yl)-1,2,6-thiadiazinane-3-carboxamide 1,1-dioxide], the pEC50 was under 5.30.

For `N#CCN1[C@H](C(=O)Nc2ccc(F)c(Cl)c2)C[C@H](c2nccs2)NS1(=O)=O` [HBV-CSU-093-ISO-I, Cis-N-(3-Chloro-4-fluorophenyl)-2-(cyanomethyl)-5-(thiazol-2-yl)-1,2,6-thiadiazinane-3-carboxamide 1,1-dioxide], the pEC50 was 5.30 to 6.00.

In the case of `N#CCN1[C@@H](C(=O)Nc2ccc(F)c(Cl)c2)C[C@@H](c2nccs2)NS1(=O)=O` [HBV-CSU-093-ISO-II, Cis-N-(3-Chloro-4-fluorophenyl)-2-(cyanomethyl)-5-(thiazol-2-yl)-1,2,6-thiadiazinane-3-carboxamide 1,1-dioxide], the pEC50 is under 5.30.

Consider `C=CCN1[C@@H](C(=O)Nc2ccc(F)c(Cl)c2)C[C@@H](c2nccs2)NS1(=O)=O` [HBV-CSU-094-ISO-I, Cis-2-Allyl-N-(3-chloro-4-fluorophenyl)-5-(thiazol-2-yl)-1,2,6-thiadiazinane-3-carboxamide 1,1-dioxide], for which the pEC50 is under 5.30.

With `C=CCN1[C@H](C(=O)Nc2ccc(F)c(Cl)c2)C[C@H](c2nccs2)NS1(=O)=O` [HBV-CSU-094-ISO-II, Cis-2-Allyl-N-(3-chloro-4-fluorophenyl)-5-(thiazol-2-yl)-1,2,6-thiadiazinane-3-carboxamide 1,1-dioxide], the pEC50 is over 6.00.
